Common to all, as to assay type: cell-based
Assay [1] concerns P. aeruginosa strain PAO1. As to the kind of experiment: Improved biofilm dispersion screen (already-formed biofilms, crystal violet). As to conditions: Pseudomonas aeruginosa, 30 mM NaOH step, positive = dispersion, negative = enhancement of pre-existing biofilm, quadruplicate, read-out: average percentage reduction of biofilm relative to the two control values (dispersion). Summed up: (§1)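 Biofilms were grown 24 h in duplicate plates without compound; one plate was crystal violet-stained for t0. On the other, fresh medium plus compound at 390 μM final was added for 22–26 h more, with DMSO controls giving t24. Value: average % biofilm reduction versus t0 and t24, quadruplicates.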

For assay [2], the system named is S. epidermidis strain ATCC 35984. Described as above. The following applies: Staphylococcus epidermidis, ATCC35984, no NaOH, positive = dispersion, negative = enhancement of pre-existing biofilm, quadruplicate, read-out: average percentage reduction of biofilm relative to the two control values (dispersion). Summed up: as §1
The test system of assay [3] is P. fluorescens strain ATCC 13525. Described as above. As to conditions: Pseudomonas fluorescens, ATCC13525, 20 mM NaOH step, positive = dispersion, negative = enhancement of pre-existing biofilm, quadruplicate, read-out: average percentage reduction of biofilm relative to the two control values (dispersion). The essentials:
as §1

For assay [4], the system named is P. aeruginosa strain PAO1. The experiment in a line: Biofilm prevention screen (96-well microplate, crystal violet). As to conditions: Pseudomonas aeruginosa, positive = prevention, negative = enhancement of biofilm formation, quadruplicate, read-out: average percentage reduction of biofilm formed relative to DMSO controls. Summed up: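 Biofilm prevention is scored as percent decrease in CV-stained biomass relative to DMSO controls after 16–26 hours' growth with compound at final 250–500, 160 or 32 μM. Incubation was 30° C for both Pseudomonas strains and 37° C for S. epidermidis, with shaking.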

Regarding `CCCCCCCCCCNC(=O)[C@@H]1CCCN1` [Compound 32, L-proline n-decyl amide], the inhibition at 390 µM was -107% in assay [1], 72% in assay [2], 0% in assay [3] and 22% in assay [4]. In addition, the inhibition at 32 µM in assay [4] is -15%. Besides, in assay [4], the inhibition at 160 µM was -43%.
For the molecule `CCCCCCCCCCCCNC(=O)[C@@H]1CCCN1` [Compound 168], the inhibition at 390 µM was 17% in assay [1], 78% in assay [2], -3% in assay [3] and 91% in assay [4]. For the same molecule, in assay [4], the inhibition at 32 µM turned out to be 3%. Besides, the inhibition at 160 µM in assay [4] was determined as 53%.
With `O=C(NCCCCCCCCCCCCNC(=O)[C@H]1CCCN1)[C@H]1CCCN1` [Compound 226, D-proline 1,12-diaminododecane bisamide], the inhibition at 390 µM in assay [1] turned out to be 7%; in assay [2], 26%; in assay [3], 32%; in assay [4], 95%. Further, the inhibition at 32 µM in assay [4] is -23%. Besides, the inhibition at 160 µM in assay [4] came out at 96%.

These data come from US7018642B2 (The Procter & Gamble Company, priority 2001, dated 2006).
